In publication PMC7389181, “The interaction with fungal cell wall polysaccharides determines the salt tolerance of antifungal plant defensins” (The Cell Surface, 2019):

Assays:
[1] = Polysaccharide binding (solution depletion) to yeast β-glucan; details: one-site binding model
Method: (§1) Defensin binding to polysaccharides was examined using the protocol described in ([Osmond et al., 2001]) with some modifications. Briefly, the insoluble polysaccharides, yeast β-glucan (Megazyme), chitin from shrimp shells (Sigma), and microcrystalline cellulose (Sigma) were washed twice with water and once with phosphate buffered saline (PBS) and resuspended in PBS at 100 mg/mL. The appropriate volume of polysaccharide suspension was transferred to a 1.5 mL microfuge tube. PBS was added to increase the volume to 47.5 µL followed by defensin (2.5 µL of 0.8 mg/mL in H2O). This mixture was incubated on a rotating wheel at room temperature for 30 min before insoluble polysaccharide was pelleted at 17 000 g. Supernatant (25 µL) was transferred to a clean 1.5 mL microfuge tube, mixed with 5 µL of a 1:9 mix of Bond Breaker reducing agent (ThermoFisher):NuPage LDS Loading Buffer (Invitrogen) and heated to 95 °C for 20 min. Samples (20 µL) were loaded onto a 10% NOVEX Bolt BisTris gel (Life Technologies). Proteins were visualized by staining with RAPIDstain (Calbiochem) and imaged on a ChemiDoc (Bio-Rad). Densitometry was performed on resulting bands using the quantitation tool in ImageLab (V4.0 Bio-Rad) and the abundance of defensin remaining in the supernatant was calculated relative to the no polysaccharide control. Relative binding to the pellet was inferred as the amount of defensin that had been depleted from the supernatant (1-relative binding to pellet). All experiments were performed in triplicate. Kd values were calculated by plotting the relative binding vs the polysaccharide concentration in Prism (V7.0 GraphPad) and using the non-linear regression tool with the one-site binding hyperbola equation.

yeast spheroplasts = experiment: Cell death of spheroplasts, SYTOX green flow cytometry; type: cell-based, Saccharomyces cerevisiae
Method: (§2) Spheroplasts were prepared as outlined in ([Guthrie and Fink, 2002]) with modifications. Cells were prepared with and without the addition of zymolyase (Sigma) and washed twice with ½ PDB with 1 M sorbitol prior to any defensin treatment. Successful hydrolysis of the cell wall was assessed by pelleting an aliquot of spheroplasts, resuspending in MilliQ H2O and assessing cell lysis. For survival assays, intact cells or spheroplasts were diluted in ½ PDB with 1 M sorbitol to an OD600 = 1. NaD1 (10 µL) at 0, 25, 50 or 100 µM was added to 90 µL of prepared cells or spheroplasts and incubated at 30 °C for 30 min. Serial dilutions of each treatment were plated onto YPD and incubated for 24 h at 30 °C prior to imaging. Assessment of the effect of NaCl on the activity of NaD1 on spheroplasts was conducted as described above except for the addition of 100 mM NaCl to the ½ PDB 1 M sorbitol in the appropriate treatment. The cell death indicator, SYTOX green (ThermoFisher), was added to all treatments to a final concentration of 1 µM and FACS analysis was performed using a FACS Canto II (BD biosciences) using the FITC settings. Analysis was performed using Weasel V3.0 (Walter and Eliza Hall Institute of Medical Research).

S. cerevisiae [2] = experiment: Checkerboard synergy assay with polysaccharide synthase inhibitors; type: cell-based, Saccharomyces cerevisiae; details: average of three independent experiments ± standard deviation, synergy FIC <0.5
Method: (§3) Antifungal assays were performed as described in ([Bleackley et al., 2014]). S. cerevisiae cells were prepared by diluting to an OD600 = 0.01 and C. albicans cells were diluted to OD600 = 0.0002 in ½ strength potato dextrose broth (1/2 PDB) (Becton Dickinson). Assays investigating the combined effect of chemical cell wall synthesis inhibitors with defensins were performed as described in ([Bleackley et al., 2017]). Synergy was assessed using the fractional inhibitory concentration (FIC) equation. FIC=MICAcombination/MICAalone+MICBcombination/MICBalone
(§4) Synergy is defined as an FIC value of less than 0.5. Assays investigating the activity of defensins in salt were set up using the same checkerboard method as the synergy assays but with NaCl in place of one of the antifungal molecules.

[3] = Polysaccharide binding (solution depletion) to cellulose; details: SDS-PAGE analysis of supernatant, 3 independent experiments
Method: as §1, with “Samples (20 µL) were loaded onto a 10% NOVEX Bolt BisTris gel (Life Technologies). Proteins were visualized by staining with RAPIDstain (Calbiochem) and imaged on a ChemiDoc (Bio-Rad).” left out, “Relative binding to the pellet was inferred as the amount of defensin that had been depleted from the supernatant (1-relative binding to pellet). All experiments were performed in triplicate.” left out

C. albicans = experiment: Checkerboard synergy assay with polysaccharide synthesis inhibitors; type: cell-based, Candida albicans; details: for MIC: Candida albicans, read-out: MIC of polysaccharide synthesis inhibitor alone
Method: (§5) Saccharomyces cerevisiae deletion strains were retrieved from the haploid non-essential deletion collection (ThermoScientific) and were isogenic with the wild type BY4741 (MATa his3Δ1 leu2Δ0 met15Δ0 ura3Δ0). Candida albicans experiments were performed with strain ATCC90028.
as §3, §4

S. cerevisiae [4] = experiment: Growth inhibition in varying NaCl (checkerboard); type: cell-based, Saccharomyces cerevisiae; details: 1/2 PDB; for Effect of increasing NaCl concentration on growth inhibitory activity: NaCl checkerboard up to about 100 mM, representative of three independent replicates
Method: as §3, §4

[5] = tested on: yeast cells with intact cell walls; experiment: Cell death of intact yeast cells, SYTOX green flow cytometry; type: cell-based, Saccharomyces cerevisiae
Method: as §2

S. cerevisiae BY4741 [6] = experiment: Survival assay in the presence of exogenous 1,3-β-glucan (laminarin); type: cell-based, Saccharomyces cerevisiae; details: plated on YPD agar; for Laminarin concentration protecting against the antifungal activity of NaD1: 20 µM NaD1, 1 h
Method: To assess the effect of exogenous 1,3-β-glucan on the activity of NaD1, a survival assay was employed essentially as described in ([Bleackley et al., 2017]). A two-fold dilution series of laminarin (Sigma) from 50 mg/mL was prepared in MilliQ H2O and 10 µL of each concentration plus a no laminarin control were transferred to the wells of a U-bottom 96 well microtitre plate (Greiner Bio-one). NaD1 (10 µL of 200 µM solution) was added to each laminarin preparation. Controls with no NaD1 or laminarin were also prepared. An overnight culture of S. cerevisiae BY4741 cells was diluted to OD600 = 0.1 in ½ PDB. The diluted yeast cell suspension was then added to each of the wells of the microtitre plate and incubated at 30 °C with shaking at 750 rpm in a Thermomixer (Eppendorff) for 1 h. A fivefold dilution series of each treatment was then spotted onto YPD agar (1% yeast extract, 2% peptone, 2% dextrose, 2% agar) and incubated at 30 °C prior to imaging.

S. cerevisiae fks1Δ = experiment: Antifungal growth assay, 1,3-β-glucan synthase deletion strain; type: cell-based, Saccharomyces cerevisiae; details: 1/2 PDB, twofold dilution series, lowest concentration with no visible growth, three independent experiments
Method: as §5, §3

S. cerevisiae BY4741 [7] = experiment: Antifungal growth assay, wild type; type: cell-based, Saccharomyces cerevisiae; details: 1/2 PDB, twofold dilution series, lowest concentration with no visible growth, three independent experiments
Method: as §5, §3

S. cerevisiae chs3Δ = experiment: Antifungal growth assay, chitin synthase deletion strain; type: cell-based, Saccharomyces cerevisiae; details: 1/2 PDB, twofold dilution series, lowest concentration with no visible growth, three independent experiments
Method: as §5, §3

[8] = Polysaccharide binding (solution depletion) to chitin; parameters: species or system shrimp; details: one-site binding model
Method: as §1

[9] = insoluble polysaccharide in PBS, 30 min room temperature, SDS-PAGE densitometry of supernatant, Kd based on concentration of monosaccharide units, ± SEM, three independent replicates
[10] = solution depletion, SDS-PAGE densitometry, polysaccharide mass concentration, 3 independent experiments
[11] = C. albicans checkerboard, synergy defined as FIC < 0.5

## NaD1: plant defensin from the ornamental tobacco Nicotiana alata, isolated from flowers (RECKTESNTFPGICITKPPCRKACISEKFTDGHCSKILRRCLCTKPC; UniProt Q8GTM0 26-72, looked up)
[1]; [9]
  Kd: 25.9 ± 5 mM
[1]; [10]
  Kd, β-glucan: 4200 ± 800 µg/mL
Yeast spheroplasts; 1 M sorbitol with 100 mM NaCl, SYTOX green
  NaD1 concentration giving significant cell death: ≥ 0.313 µM
Yeast spheroplasts; NaD1 concentrations above 0.625 µM, 1/2 PDB with 1 M sorbitol, 30 °C 30 min
  Cell death (SYTOX green): over 60%
S. cerevisiae [2]
  FIC in combination with caspofungin: 0.3 ± 0.06
[3]
  Binding to cellulose: did not bind
C. albicans; [11]
  FIC in combination with caspofungin: 0.3
  FIC in combination with nikkomycin Z: 0.92
S. cerevisiae [4]
  Effect of increasing NaCl concentration on growth inhibitory activity: progressively poorer inhibitor
[5]; 1 M sorbitol with 100 mM NaCl, up to 10 µM NaD1, SYTOX green
  Effect on cell death: unaffected
[5]; NaD1 5 µM, 1/2 PDB with 1 M sorbitol, 30 °C 30 min
  Cell death (SYTOX green): 60%
S. cerevisiae BY4741 [6]; 20 µM NaD1, absence of laminarin, 1 h
  Survival of yeast cells: eliminated all viable yeast cells
S. cerevisiae fks1Δ
  MIC: 1.25 µM
S. cerevisiae BY4741 [7]
  MIC: 2.5 µM
S. cerevisiae chs3Δ
  MIC: 2.5 µM
[8]; [9]
  Kd: 33 ± 11.8 mM
[8]; [10]
  Kd, chitin: 6700 ± 2400 µg/mL

## DmAMP1: defensin from Dahlia merckii expressed in Pichia pastoris (ELCEKASKTWSGNCGNTGHCDNQCKSWEGAAHGACHVRNGKHMCFCYFNC; UniProt P0C8Y4 1-50, looked up)
[1]; [9]
  Kd, β-glucan: No binding
S. cerevisiae [2]
  FIC in combination with caspofungin: 0.6 ± 0.06
  FIC in combination with nikkomycin: 0.64 ± 0.16
S. cerevisiae [4]
  Effect of increasing NaCl concentration on growth inhibitory activity: no loss of growth inhibitory activity
S. cerevisiae [4]; absence of added NaCl, absorbance at 595 nm
  Concentration completely inhibiting growth: 0.313 µM
S. cerevisiae fks1Δ
  MIC: 0.16 µM
S. cerevisiae BY4741 [7]
  MIC: 0.31 µM
S. cerevisiae chs3Δ
  MIC: 0.31 µM
[8]; [9]
  Kd, chitin: Neither TsD10 nor DmAMP1 bound

## laminarin
S. cerevisiae BY4741 [6]
  Laminarin concentration protecting against the antifungal activity of NaD1: ≥ 1.25 mg/mL
S. cerevisiae BY4741 [6]; listed as Laminarin
  Laminarin concentration protecting against the antifungal activity of NaD1: above 1.25 mg/mL

## CC[C@H](C)C[C@H](C)CCCCCCCCC(=O)N[C@H]1C[C@@H](O)[C@@H](NCCN)NC(=O)[C@@H]2[C@@H](O)CCN2C(=O)[C@H]([C@H](O)CCN)NC(=O)[C@H]([C@H](O)[C@@H](O)c2ccc(O)cc2)NC(=O)[C@@H]2C[C@@H](O)CN2C(=O)[C@H]([C@@H](C)O)NC1=O [caspofungin, reference compound]
C. albicans
  MIC: 0.25 µg/mL

## C[C@@H]([C@H](N)C(=O)N[C@H](C(=O)O)[C@H]1O[C@@H](n2ccc(=O)[nH]c2=O)[C@H](O)[C@@H]1O)[C@H](O)c1ccc(O)cn1 [nikkomycin Z, reference compound]
C. albicans
  MIC: 2.5 µg/mL
